Data from ChEMBL document CHEMBL4261615, “Design, synthesis, biological evaluation and cellular imaging of imidazo[4,5-b]pyridine derivatives as potent and selective TAM inhibitors” (Bioorg Med Chem, 2018).
Calls of active or inactive are those of the source. No cut-off for these calls is given here.

Experiments:
[1] = biological target: Fibroblast growth factor receptor 1 (Homo sapiens) (UniProt P11362); assay: Binding affinity to wild-type human partial length FGFR1 (P357 to V669 residues) expressed in bacterial expression system assessed as fraction of unbound kinase to substrate at 1 uM after 1 hr by KinomeScan assay
[2] = biological target: Glycogen synthase kinase-3 beta (Homo sapiens) (UniProt P49841); assay: Binding affinity to full length wild type human GSK3beta (M1 to T433 residues) expressed in mammalian expression system assessed as fraction of unbound kinase to substrate at 10 uM after 1 hr by KinomeScan assay
[3] = biological target: Epidermal growth factor receptor (Homo sapiens) (UniProt P00533); assay: Binding affinity to partial length wild type human EGFR (R669 to V1011 residues) expressed in bacterial expression system assessed as fraction of unbound kinase to substrate at 1 uM after 1 hr by KinomeScan assay
[4] = biological target: Hepatocyte growth factor receptor (Homo sapiens) (UniProt P08581); assay: Binding affinity to human MET (D1010 to S1367 residues) expressed in bacterial expression system assessed as fraction of unbound kinase to substrate at 0.1 uM after 1 hr by KinomeScan assay
[5] = biological target: Tyrosine-protein kinase receptor UFO (Homo sapiens) (UniProt P30530); assay: Inhibition of recombinant His-tagged human Axl (473 to end residues) cytoplasmic domain expressed in insect system using poly (Glu-Ala-Tyr) peptide as substrate after 1.5 hrs by ELISA
[6] = biological target: Tyrosine-protein kinase ABL1 (Homo sapiens) (UniProt P00519); assay: Binding affinity to human wild type ABL1 (229 to 512 residues) expressed in mammalian expression system assessed as fraction of unbound kinase to substrate at 1 uM after 1 hr by KinomeScan assay
[7] = biological target: Epidermal growth factor receptor (Homo sapiens) (UniProt P00533); assay: Binding affinity to partial length wild type human EGFR (R669 to V1011 residues) expressed in bacterial expression system assessed as fraction of unbound kinase to substrate at 10 uM after 1 hr by KinomeScan assay
Homo sapiens = organism: Homo sapiens; assay: Antiproliferative activity against human MGHU3 cells after 72 hrs by CellTiter-Glo assay; type: functional, cell-based
[8] = biological target: Serine/threonine-protein kinase B-raf (Homo sapiens) (UniProt P15056); assay: Binding affinity to wild-type human partial length BRAF (S429 to E741 residues) expressed in mammalian expression system assessed as fraction of unbound kinase to substrate at 10 uM after 1 hr by KinomeScan assay
[9] = biological target: T1, Tyrosine-protein kinase receptor TYRO3 (Homo sapiens, UniProt Q06418); assay: Inhibition of recombinant GST-tagged human Tyro3 (451 to 890 residues) cytoplasmic domain expressed in Baculovirus expression system using poly (Glu-Ala-Tyr) peptide as substrate after 5 mins in presence of ADP by fluorescence analysis
T1 sequence (Q06418 whole entry): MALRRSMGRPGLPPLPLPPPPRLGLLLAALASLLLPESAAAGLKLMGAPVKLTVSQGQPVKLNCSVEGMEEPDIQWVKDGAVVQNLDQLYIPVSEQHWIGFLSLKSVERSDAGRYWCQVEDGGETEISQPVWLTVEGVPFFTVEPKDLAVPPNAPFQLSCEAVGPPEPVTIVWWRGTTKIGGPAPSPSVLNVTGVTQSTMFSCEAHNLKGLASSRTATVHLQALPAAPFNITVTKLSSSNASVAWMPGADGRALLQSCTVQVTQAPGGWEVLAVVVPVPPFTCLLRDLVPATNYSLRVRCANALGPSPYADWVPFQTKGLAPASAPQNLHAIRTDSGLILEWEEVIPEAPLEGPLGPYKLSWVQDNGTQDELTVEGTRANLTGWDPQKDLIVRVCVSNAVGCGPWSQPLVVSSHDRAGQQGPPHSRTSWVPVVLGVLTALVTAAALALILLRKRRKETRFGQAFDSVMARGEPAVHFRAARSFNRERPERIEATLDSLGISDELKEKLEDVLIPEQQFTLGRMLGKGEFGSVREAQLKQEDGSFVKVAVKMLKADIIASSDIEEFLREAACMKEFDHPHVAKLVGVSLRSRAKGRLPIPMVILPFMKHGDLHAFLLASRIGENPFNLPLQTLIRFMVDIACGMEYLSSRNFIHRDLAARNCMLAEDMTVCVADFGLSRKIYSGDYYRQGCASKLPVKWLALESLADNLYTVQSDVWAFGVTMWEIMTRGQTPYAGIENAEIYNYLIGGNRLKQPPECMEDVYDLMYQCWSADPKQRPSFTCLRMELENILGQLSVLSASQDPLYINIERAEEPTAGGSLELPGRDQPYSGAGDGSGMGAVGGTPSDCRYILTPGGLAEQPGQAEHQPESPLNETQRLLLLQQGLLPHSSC

[10] = biological target: T2, Tyrosine-protein kinase Mer (Homo sapiens) (UniProt Q12866); assay: Binding affinity to wild-type partial length human MER (R557 to L884 residues) expressed in bacterial expression system assessed as fraction of unbound kinase to substrate at 10 uM after 1 hr by KinomeScan assay
T2 sequence (whole entry): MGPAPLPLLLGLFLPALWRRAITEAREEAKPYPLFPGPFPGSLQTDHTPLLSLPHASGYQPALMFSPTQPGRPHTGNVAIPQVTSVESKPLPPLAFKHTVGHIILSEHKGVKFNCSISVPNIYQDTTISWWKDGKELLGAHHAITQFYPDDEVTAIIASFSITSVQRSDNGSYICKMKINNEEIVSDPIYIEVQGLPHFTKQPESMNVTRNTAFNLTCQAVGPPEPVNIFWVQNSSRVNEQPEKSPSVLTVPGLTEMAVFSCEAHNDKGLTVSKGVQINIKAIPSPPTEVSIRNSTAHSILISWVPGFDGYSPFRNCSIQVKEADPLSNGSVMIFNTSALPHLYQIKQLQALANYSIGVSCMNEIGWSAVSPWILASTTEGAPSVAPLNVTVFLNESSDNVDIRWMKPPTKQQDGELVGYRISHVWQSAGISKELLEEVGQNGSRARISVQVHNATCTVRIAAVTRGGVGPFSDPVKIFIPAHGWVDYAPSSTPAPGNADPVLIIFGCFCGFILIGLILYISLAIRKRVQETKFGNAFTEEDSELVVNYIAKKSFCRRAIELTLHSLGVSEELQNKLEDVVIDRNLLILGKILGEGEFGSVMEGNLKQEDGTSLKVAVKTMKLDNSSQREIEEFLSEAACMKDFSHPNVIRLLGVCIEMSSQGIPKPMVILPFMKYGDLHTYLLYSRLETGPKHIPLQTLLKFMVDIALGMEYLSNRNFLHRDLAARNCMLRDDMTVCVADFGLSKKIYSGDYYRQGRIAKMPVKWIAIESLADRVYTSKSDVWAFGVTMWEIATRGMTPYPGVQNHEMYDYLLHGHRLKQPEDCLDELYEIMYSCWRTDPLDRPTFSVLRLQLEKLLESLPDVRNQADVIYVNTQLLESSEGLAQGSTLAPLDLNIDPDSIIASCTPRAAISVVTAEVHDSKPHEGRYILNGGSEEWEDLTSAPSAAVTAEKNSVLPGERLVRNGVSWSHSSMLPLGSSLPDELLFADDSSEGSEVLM

Chain of Epidermal growth factor receptor (Homo sapiens) (P00533 whole entry, the tested form may be a part): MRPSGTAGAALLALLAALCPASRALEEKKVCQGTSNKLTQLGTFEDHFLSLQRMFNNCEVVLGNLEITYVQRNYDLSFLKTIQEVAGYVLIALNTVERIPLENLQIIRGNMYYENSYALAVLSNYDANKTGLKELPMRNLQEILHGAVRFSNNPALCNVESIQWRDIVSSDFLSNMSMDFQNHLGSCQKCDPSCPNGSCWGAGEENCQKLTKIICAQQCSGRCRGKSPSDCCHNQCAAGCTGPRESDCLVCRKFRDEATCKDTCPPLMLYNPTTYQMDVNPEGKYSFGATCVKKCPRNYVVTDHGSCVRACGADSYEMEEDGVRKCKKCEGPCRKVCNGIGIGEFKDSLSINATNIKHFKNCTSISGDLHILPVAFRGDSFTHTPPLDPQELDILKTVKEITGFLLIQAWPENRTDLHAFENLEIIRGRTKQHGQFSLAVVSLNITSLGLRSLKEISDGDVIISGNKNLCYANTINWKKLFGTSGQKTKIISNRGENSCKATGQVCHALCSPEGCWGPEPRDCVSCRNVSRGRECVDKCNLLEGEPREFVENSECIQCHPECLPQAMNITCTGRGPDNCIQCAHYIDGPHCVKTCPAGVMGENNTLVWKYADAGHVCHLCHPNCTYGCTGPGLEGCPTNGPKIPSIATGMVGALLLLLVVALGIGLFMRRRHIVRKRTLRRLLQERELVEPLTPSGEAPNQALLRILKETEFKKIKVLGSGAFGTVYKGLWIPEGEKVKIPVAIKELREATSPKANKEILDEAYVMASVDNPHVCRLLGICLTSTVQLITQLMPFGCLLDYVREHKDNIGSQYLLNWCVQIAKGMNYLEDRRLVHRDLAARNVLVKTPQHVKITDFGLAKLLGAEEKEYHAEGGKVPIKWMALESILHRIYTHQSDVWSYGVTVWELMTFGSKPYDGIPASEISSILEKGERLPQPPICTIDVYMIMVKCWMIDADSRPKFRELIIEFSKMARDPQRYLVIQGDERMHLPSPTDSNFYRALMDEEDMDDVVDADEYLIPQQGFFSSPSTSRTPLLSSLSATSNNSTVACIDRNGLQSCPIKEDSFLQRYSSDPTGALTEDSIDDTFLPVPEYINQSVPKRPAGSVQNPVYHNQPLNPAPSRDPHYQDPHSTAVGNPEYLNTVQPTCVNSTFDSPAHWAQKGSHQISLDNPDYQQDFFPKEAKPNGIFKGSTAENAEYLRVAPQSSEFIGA
Chain of Tyrosine-protein kinase receptor UFO (Homo sapiens) (P30530 whole entry, the tested form may be a part): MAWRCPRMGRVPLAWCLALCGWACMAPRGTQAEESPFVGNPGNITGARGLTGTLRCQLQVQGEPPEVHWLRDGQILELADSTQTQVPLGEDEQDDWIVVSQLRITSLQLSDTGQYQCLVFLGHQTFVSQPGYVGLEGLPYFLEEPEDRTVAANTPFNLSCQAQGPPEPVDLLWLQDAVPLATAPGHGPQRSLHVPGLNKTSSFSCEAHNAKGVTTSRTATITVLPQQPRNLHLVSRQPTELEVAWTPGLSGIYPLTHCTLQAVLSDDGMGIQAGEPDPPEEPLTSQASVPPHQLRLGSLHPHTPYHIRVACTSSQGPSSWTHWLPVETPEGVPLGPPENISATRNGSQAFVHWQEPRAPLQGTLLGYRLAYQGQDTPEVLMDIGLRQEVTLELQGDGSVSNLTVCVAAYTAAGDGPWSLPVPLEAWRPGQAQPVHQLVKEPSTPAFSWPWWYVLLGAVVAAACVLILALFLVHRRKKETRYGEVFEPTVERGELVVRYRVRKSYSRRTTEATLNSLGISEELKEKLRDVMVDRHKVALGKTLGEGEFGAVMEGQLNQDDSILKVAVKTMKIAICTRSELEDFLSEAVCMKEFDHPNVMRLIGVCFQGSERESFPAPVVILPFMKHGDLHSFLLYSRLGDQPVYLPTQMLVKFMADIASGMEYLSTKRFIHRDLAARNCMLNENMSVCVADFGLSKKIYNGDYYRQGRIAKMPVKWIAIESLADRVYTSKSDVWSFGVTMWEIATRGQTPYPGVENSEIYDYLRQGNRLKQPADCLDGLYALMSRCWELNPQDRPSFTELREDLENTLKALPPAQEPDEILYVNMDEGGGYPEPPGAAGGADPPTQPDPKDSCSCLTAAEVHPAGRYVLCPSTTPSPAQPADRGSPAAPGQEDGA
Chain of Fibroblast growth factor receptor 1 (Homo sapiens) (P11362 22-822 limits assumed): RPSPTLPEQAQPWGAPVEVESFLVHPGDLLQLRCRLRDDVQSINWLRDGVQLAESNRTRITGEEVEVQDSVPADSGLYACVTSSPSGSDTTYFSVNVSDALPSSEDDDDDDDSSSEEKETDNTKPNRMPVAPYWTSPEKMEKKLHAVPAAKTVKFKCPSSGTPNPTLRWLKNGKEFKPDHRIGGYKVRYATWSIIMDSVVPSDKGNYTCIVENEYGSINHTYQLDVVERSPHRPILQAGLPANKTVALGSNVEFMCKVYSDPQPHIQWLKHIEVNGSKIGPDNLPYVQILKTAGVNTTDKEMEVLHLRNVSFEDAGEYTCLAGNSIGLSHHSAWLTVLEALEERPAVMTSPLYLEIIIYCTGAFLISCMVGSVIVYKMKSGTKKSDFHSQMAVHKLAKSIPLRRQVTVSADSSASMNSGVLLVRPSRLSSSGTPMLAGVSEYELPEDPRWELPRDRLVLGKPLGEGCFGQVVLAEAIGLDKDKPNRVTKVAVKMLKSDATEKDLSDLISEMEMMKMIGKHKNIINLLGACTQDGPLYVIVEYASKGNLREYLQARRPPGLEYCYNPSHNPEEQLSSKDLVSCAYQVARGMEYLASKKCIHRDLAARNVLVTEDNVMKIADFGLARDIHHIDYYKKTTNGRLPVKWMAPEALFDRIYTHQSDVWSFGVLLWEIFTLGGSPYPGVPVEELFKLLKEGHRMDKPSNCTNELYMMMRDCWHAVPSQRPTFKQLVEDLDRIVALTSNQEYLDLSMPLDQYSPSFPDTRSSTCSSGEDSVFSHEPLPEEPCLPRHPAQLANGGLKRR
Chain of Hepatocyte growth factor receptor (Homo sapiens) (P08581 whole entry, the tested form may be a part): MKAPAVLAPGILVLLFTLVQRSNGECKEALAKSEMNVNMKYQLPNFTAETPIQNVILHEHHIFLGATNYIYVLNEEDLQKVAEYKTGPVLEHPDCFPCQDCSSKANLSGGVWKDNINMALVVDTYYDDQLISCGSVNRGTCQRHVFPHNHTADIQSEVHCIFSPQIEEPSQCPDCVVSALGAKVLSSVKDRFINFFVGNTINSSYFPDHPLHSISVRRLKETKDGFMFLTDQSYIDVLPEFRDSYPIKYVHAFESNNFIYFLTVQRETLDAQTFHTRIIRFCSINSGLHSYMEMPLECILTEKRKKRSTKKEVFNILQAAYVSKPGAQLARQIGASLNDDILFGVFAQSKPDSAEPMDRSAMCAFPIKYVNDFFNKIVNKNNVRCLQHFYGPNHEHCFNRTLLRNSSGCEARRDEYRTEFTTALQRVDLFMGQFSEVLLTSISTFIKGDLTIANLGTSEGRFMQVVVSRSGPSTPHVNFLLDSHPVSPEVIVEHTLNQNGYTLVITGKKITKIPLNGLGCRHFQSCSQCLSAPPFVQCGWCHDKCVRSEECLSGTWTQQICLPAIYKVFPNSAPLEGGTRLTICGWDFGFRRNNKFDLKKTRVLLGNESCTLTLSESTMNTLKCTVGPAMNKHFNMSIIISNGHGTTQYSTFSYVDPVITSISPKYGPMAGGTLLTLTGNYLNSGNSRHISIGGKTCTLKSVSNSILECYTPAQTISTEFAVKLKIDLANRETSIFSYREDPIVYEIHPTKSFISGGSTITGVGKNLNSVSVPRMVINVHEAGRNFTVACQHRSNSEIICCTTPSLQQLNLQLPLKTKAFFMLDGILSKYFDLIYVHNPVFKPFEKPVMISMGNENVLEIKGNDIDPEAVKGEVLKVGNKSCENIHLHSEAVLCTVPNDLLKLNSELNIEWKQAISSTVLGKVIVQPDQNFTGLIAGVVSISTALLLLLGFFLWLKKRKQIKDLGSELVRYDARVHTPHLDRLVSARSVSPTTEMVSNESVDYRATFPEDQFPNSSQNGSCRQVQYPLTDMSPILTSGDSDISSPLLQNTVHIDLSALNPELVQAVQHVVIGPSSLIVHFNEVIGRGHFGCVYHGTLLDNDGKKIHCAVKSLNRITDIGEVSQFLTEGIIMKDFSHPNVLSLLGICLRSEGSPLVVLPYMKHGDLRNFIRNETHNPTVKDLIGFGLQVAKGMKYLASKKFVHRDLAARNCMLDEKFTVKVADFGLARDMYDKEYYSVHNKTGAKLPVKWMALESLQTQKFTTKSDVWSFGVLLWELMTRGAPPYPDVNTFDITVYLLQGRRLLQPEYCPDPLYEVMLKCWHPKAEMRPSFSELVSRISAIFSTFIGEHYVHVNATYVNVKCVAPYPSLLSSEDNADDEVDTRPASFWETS
Chain of Serine/threonine-protein kinase B-raf (Homo sapiens) (P15056 whole entry, the tested form may be a part): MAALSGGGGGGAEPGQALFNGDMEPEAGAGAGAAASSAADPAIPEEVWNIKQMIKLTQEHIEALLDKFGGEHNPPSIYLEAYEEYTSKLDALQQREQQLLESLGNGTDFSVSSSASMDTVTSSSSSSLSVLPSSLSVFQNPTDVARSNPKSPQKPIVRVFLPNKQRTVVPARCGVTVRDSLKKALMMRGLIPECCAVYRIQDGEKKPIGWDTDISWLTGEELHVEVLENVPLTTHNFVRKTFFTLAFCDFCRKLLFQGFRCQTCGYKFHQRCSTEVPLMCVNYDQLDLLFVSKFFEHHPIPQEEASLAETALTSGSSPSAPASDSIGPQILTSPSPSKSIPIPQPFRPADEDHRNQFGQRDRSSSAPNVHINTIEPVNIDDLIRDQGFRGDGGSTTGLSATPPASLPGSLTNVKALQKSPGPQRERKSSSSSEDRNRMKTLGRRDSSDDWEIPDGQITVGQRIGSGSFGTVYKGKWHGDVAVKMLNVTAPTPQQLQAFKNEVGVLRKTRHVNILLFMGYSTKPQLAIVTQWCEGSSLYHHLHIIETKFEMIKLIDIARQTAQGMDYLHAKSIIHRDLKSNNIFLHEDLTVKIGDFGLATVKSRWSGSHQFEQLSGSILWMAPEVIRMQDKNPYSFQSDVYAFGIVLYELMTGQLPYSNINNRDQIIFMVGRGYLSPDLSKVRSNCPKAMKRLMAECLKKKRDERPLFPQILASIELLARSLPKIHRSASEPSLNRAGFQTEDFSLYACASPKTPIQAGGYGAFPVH

**Q.** For `O=C(Nc1ccc(Oc2ccnc3[nH]cnc23)c(F)c1)c1cccn(-c2ccc(F)cc2)c1=O`, which Activity [1] is on record?
**A.** The Activity was 2%.

**Q.** What about the Activity [2] of the same molecule?
**A.** Its Activity is 6%.

**Q.** And the Activity [3]?
**A.** Its Activity is 0%.

**Q.** And the Activity [4]?
**A.** Its Activity is 83%.

**Q.** And the inhibition [5]?
**A.** The inhibition was “Active”.

**Q.** What about the Activity [6] of the same molecule?
**A.** The Activity was 13%.

**Q.** And the Activity [7]?
**A.** Its Activity is 0%.

**Q.** What about the Activity (Homo sapiens) of the same molecule?
**A.** The Activity was “inactive”.

**Q.** What about the Activity [8] of the same molecule?
**A.** The Activity was 58%.

**Q.** What about the IC50 [9] of the same molecule?
**A.** The IC50 was 690 nM.

**Q.** What about the Activity [10] of the same molecule?
**A.** Its Activity is 99.6%.

**Q.** How did the Activity [1] turn out when `CC(C)c1nc2c(Oc3ccc(NC(=O)c4cccn(-c5ccc(F)cc5)c4=O)cc3F)ccnc2[nH]1` was run?
**A.** Its Activity is 1%.

**Q.** And the Activity [2]?
**A.** Its Activity is 0%.

**Q.** And the Activity [3]?
**A.** Its Activity is 0%.

**Q.** And the Activity [4]?
**A.** Its Activity is 83%.

**Q.** What about the inhibition [5] of the same molecule?
**A.** The inhibition was “inactive”.

**Q.** What about the Activity [6] of the same molecule?
**A.** The Activity was 3%.

**Q.** And the Activity [7]?
**A.** The Activity was 8%.

**Q.** What about the Activity (Homo sapiens) of the same molecule?
**A.** The Activity was “inactive”.

**Q.** What about the Activity [8] of the same molecule?
**A.** The Activity was 43%.

**Q.** What about the IC50 [9] of the same molecule?
**A.** Its IC50 is 4700 nM.

**Q.** What about the Activity [10] of the same molecule?
**A.** Its Activity is 99.1%.

**Q.** What does the source list for `O=C(Nc1ccc(Oc2c(Br)cnc3[nH]cnc23)c(F)c1)c1cccn(-c2ccc(F)cc2)c1=O`?
**A.** Activity [1]: 1%; Activity [2]: 0%; Activity [3]: 0%; Activity [4]: 12%; inhibition [5]: inactive; Activity [6]: 0%; Activity [7]: 1%; Activity [8]: 10%; IC50 [9]: 270 nM; Activity [10]: 98.2%

**Q.** Which Activity [1] does the source give for `Cc1cnc2[nH]cnc2c1Oc1ccc(NC(=O)c2cccn(-c3ccc(F)cc3)c2=O)cc1F` here?
**A.** Its Activity is 2%.

**Q.** What about the Activity [2] of the same molecule?
**A.** The Activity was 0%.

**Q.** What about the Activity [3] of the same molecule?
**A.** Its Activity is 0%.

**Q.** And the Activity [4]?
**A.** The Activity was 54%.

**Q.** And the inhibition [5]?
**A.** The inhibition was “inactive”.

**Q.** And the Activity [6]?
**A.** Its Activity is 1%.

**Q.** What about the Activity [7] of the same molecule?
**A.** Its Activity is 0%.

**Q.** What about the Activity (Homo sapiens) of the same molecule?
**A.** The Activity was “inactive”.

**Q.** What about the Activity [8] of the same molecule?
**A.** The Activity was 18%.

**Q.** And the IC50 [9]?
**A.** Its IC50 is over 100000 nM.

**Q.** And the Activity [10]?
**A.** The Activity was 99.1%.
